{"source": "patent US10519119B2", "about": "“Nicotinic acid derivatives, their preparation and the use thereof” (XIAMEN INSTITUTE OF RARE EARTH MATERIALS, priority 2017, dated 2019)", "key": {"[1]": {"system": "human lung cancer cell line A549", "assay": "MTT test of activity in inhibiting human lung cancer cell A549", "assay_type": "cell-based", "conditions": "for pIC50: Homo sapiens, A549 cells, MTT method, cultivation 24 h with drug, OD at 595 nm; for inhibitory activity on lung cancer cell line A549: statement in words", "experimental": "(§1) The specific test process was as follows:\n(§2) (1) The lung cancer cell line A549 was plated in a 96-well plate and cultured in 100 μL medium. Until the cells were grown to 90%, 1 μL of the drug (i.e., the above example compounds) was added to the wells, each drug was tested for 8 different concentrations (the initial concentration of the drug, 50 μM, 5 μM, 500 nM, 50 nM, 5 nM, […], respectively), and each concentration of drug was experimented in 3 wells. After cultivation for 24 h, 20 μL of the already formulated 5 mg/mL MTT solution was added to each well, and the medium was aspirated after 4 hours, 150 μL DMSO was added to each well and its optical density (OD) value was measured at a wavelength of 595 nm. The negative control was DMSO.\n(§3) The IC50 value was calculated by GraphPad Prism5 software."}, "[2]": {"system": "breast cancer cell line MCF-7", "assay": "MTT test of activity in inhibiting breast cancer cell line MCF-7", "assay_type": "cell-based, human", "conditions": "for pIC50: Homo sapiens, MCF7, MCF-7 cells, MTT method, same procedure as A549; for inhibitory activity on breast cancer cell line MCF-7: statement in words", "experimental": "[The procedure below names another cell line; the source lists this cell line under the same test.] as §1, §2, §3"}, "[3]": {"system": "colorectal cancer cell line HCT-116", "assay": "MTT test of activity in inhibiting colorectal cancer cell line HCT-116", "assay_type": "cell-based, human", "conditions": "for pIC50: Homo sapiens, HCT-116 cells, MTT method, same procedure as A549; for inhibitory activity on colorectal cancer cell line HCT116: statement in words", "experimental": "[The procedure below names another cell line; the source lists this cell line under the same test.] as §1, §2, §3"}}, "note": "pIC50: −log10 of the molar value.", "data": [{"compound": "COc1ccc(-c2cc(COC(=O)c3cc(Cl)cnc3Cl)on2)cc1", "note": "[YP-44]", "values": [{"measurement": "pIC50", "setting": "[1]", "result": 3.76}, {"measurement": "inhibitory activity on lung cancer cell line A549", "setting": "[1]", "result": "strong inhibitory activity"}, {"measurement": "pIC50", "setting": "[2]", "result": 3.83}, {"measurement": "inhibitory activity on breast cancer cell line MCF-7", "setting": "[2]", "result": "strong inhibitory activity"}, {"measurement": "pIC50", "setting": "[3]", "result": 2.79}, {"measurement": "inhibitory activity on colorectal cancer cell line HCT116", "setting": "[3]", "result": "strong inhibitory activity"}]}, {"compound": "O=C(OCc1cc(-c2ccc(Cl)cc2)no1)c1cc(Cl)cnc1Cl", "note": "[YP-51]", "values": [{"measurement": "pIC50", "setting": "[1]", "result": 3.73}, {"measurement": "inhibitory activity on lung cancer cell line A549", "setting": "[1]", "result": "strong inhibitory activity"}, {"measurement": "inhibitory activity on breast cancer cell line MCF-7", "setting": "[2]", "result": "strong inhibitory activity"}, {"measurement": "inhibitory activity on colorectal cancer cell line HCT116", "setting": "[3]", "result": "strong inhibitory activity"}]}, {"compound": "COc1ccc(-c2cc(COC(=O)c3ccc(C(F)(F)F)nc3)on2)cc1", "note": "[YP-63]", "values": [{"measurement": "pIC50", "setting": "[1]", "result": 3.81}, {"measurement": "inhibitory activity on lung cancer cell line A549", "setting": "[1]", "result": "strong inhibitory activity"}, {"measurement": "pIC50", "setting": "[2]", "result": 3.88}, {"measurement": "inhibitory activity on breast cancer cell line MCF-7", "setting": "[2]", "result": "strong inhibitory activity"}, {"measurement": "pIC50", "setting": "[3]", "result": 3.54}, {"measurement": "inhibitory activity on colorectal cancer cell line HCT116", "setting": "[3]", "result": "strong inhibitory activity"}]}, {"compound": "O=C(OCc1cc(-c2ccc(Br)cc2)no1)c1ccc(C(F)(F)F)nc1", "note": "[YP-73]", "values": [{"measurement": "pIC50", "setting": "[1]", "result": 3.68}, {"measurement": "inhibitory activity on lung cancer cell line A549", "setting": "[1]", "result": "strong inhibitory activity"}, {"measurement": "pIC50", "setting": "[2]", "result": 4.37}, {"measurement": "inhibitory activity on breast cancer cell line MCF-7", "setting": "[2]", "result": "strong inhibitory activity"}, {"measurement": "inhibitory activity on colorectal cancer cell line HCT116", "setting": "[3]", "result": "strong inhibitory activity"}]}, {"compound": "Cc1ccc(-c2cc(COC(=O)c3ccc(C(F)(F)F)nc3C)on2)cc1", "note": "[YP-78]", "values": [{"measurement": "pIC50", "setting": "[1]", "result": 3.70}, {"measurement": "inhibitory activity on lung cancer cell line A549", "setting": "[1]", "result": "strong inhibitory activity"}, {"measurement": "pIC50", "setting": "[2]", "result": 3.80}, {"measurement": "inhibitory activity on breast cancer cell line MCF-7", "setting": "[2]", "result": "strong inhibitory activity"}, {"measurement": "pIC50", "setting": "[3]", "result": 4.14}, {"measurement": "inhibitory activity on colorectal cancer cell line HCT116", "setting": "[3]", "result": "strong inhibitory activity"}]}, {"compound": "Cc1nc(C(F)(F)F)ccc1C(=O)OCc1cc(-c2ccc(Cl)cc2)no1", "note": "[YP-89]", "values": [{"measurement": "pIC50", "setting": "[1]", "result": 3.05}, {"measurement": "inhibitory activity on lung cancer cell line A549", "setting": "[1]", "result": "strong inhibitory activity"}, {"measurement": "pIC50", "setting": "[2]", "result": 3.91}, {"measurement": "inhibitory activity on breast cancer cell line MCF-7", "setting": "[2]", "result": "strong inhibitory activity"}, {"measurement": "pIC50", "setting": "[3]", "result": 3.55}, {"measurement": "inhibitory activity on colorectal cancer cell line HCT116", "setting": "[3]", "result": "strong inhibitory activity"}]}, {"compound": "O=C(OCc1cc(-c2ccc(Cl)cc2)no1)c1ccc(Oc2ccccc2)nc1", "note": "[YP-108]", "values": [{"measurement": "pIC50", "setting": "[1]", "result": 3.62}, {"measurement": "inhibitory activity on lung cancer cell line A549", "setting": "[1]", "result": "strong inhibitory activity"}, {"measurement": "pIC50", "setting": "[2]", "result": 3.95}, {"measurement": "inhibitory activity on breast cancer cell line MCF-7", "setting": "[2]", "result": "strong inhibitory activity"}, {"measurement": "inhibitory activity on colorectal cancer cell line HCT116", "setting": "[3]", "result": "strong inhibitory activity"}]}]}
